Results reported in patent publication US20070072954A1, “Novel tetraoxaspiroalkanes and methods of use with organosilicon monomers in polyerizable compositions” (Curators of the University of Missouri, priority 2005, published 2007).
Marks after values point to notes of the source that are not given here.

What was measured:
Type in all cases: physicochemical
[1] = Mechanical properties measurement (3-point bend tests)
Method: In this example, the elastic modulus, ultimate strength, and work of fracture were determined for the monomers of the present invention. […] The resin was injected into the mold and cured by irradiation (500 mW/cm^2) followed by storage in the dark for 4 hours and 24 hours before mechanical tests were conducted. Three point bending tests were conducted using an electromagnetic mechanical testing machine (Enduratec Model 3200) with a 20-mm span and at a crosshead displacement rate of 0.5mm/ min at room temperature (25° C.). Load-displacement data were collected at 100 Hz. […] Flexural ultimate strength was determined from the peak loads and work of fracture was determined from the area under the stress-strain curve.

[2] = Photoreactivity assessment (photo DSC enthalpy of polymerization); conditions: for experimental ΔH as % of the calculated ΔH: 3% photoacid
Excerpt: In this example, the photoreactivity of various combinations of SIL-MIX alone or SIL-MIX with 3,9-diethyl-3,9-bis(allyloxymethyl)-1,5,7,11-tetraoxaspiro[5.5]undecane (DEBAOM-1,5,7,11-TOSU) 1; 3,9-bis(3-trimethylsilylpropyl)-1,5,7,11-tetraoxaspiro[5.5]undecane (BTMSP-1,5,7,11-TOSU) 2; 3,9-bis(allyloxymethyl)-2,4,8,10-tetraoxaspiro[5.5]undecane (BAOM-2,4,8,10-TOSU) 3; 3,9-bis(2-trimethylsilylethyl)-[…] (BTMSE-2,4,8,10-TOSU) 4; 3,3-diethyl-11,12-epoxy-1,5,7,16-tetraoxadispiro[5.2.5.2]hexadecane (DECHE-1,5,7,11-TOSU) 5; and 3,9-diethyl-3,9-bis(3-trimethylsilylpropyloxymethyl)-1,5,7,11-tetraoxaspiro[5.5]-undecane (DEBTMSPOM-1,5,7,11-TOSU) 6 was investigated. The photoreactivity assessments (n=1) were made using an EXFO Novacure light curing unit interfaced with a Perkin-Elmer Diamond DSC. The experimental conditions were as follows: 25° C.; N2 atmosphere; 400-500 nm light; 3 mm quartz light guides; output: 500 mW/cm measured 15 mm from sample surface. The sample weights were 15-18 mg. Standard A1 pans were used. An empty pan was placed in the reference position. Irradiation time was for 10 minutes following a 1 minute equilibration. After the initial run, the sample was re-irradiated for an additional 10 minutes. This second curve was subtracted from the initial exotherm curve to zero out artifacts due to beginning and ending of irradiation, and to compensate for the heat capacity differences between the sample pan and empty reference pan. Integrations were from time t=1.1 (lamp shutter opened) min to 11.1 min (lamp shutter closed).
In this example, reaction mixtures containing 0 or 20 mol % of TOSU monomers 1, 2, 3, 4, and 5 in SIL-MIX were formulated with 4.1 wt % photoinitiator system (3 wt % PI; 1 wt % CQ; 0.1 wt % ED). Formulated mixtures were heated for 5 minutes on an oil bath at about 60° C. and stirred magnetically to aid dissolution of the photoinitiator system and inventive monomer. Formulations were prepared and stored away from ambient light. Mixtures were tested for photoreactivity the same day as prepared.
The effect of doubling the photoinitiator (PI) content from 3 wt % to 6 wt % was also determined for selected mixtures. As in Example 7(a) above, reaction mixtures (about 2 g) were formulated with 4.1 wt % photoinitiator system (3 wt % PI; 1 wt % CQ; 0.1 wt % ED) except where noted. Formulated mixtures were heated for 5 minutes on an oil bath @ 60° C. and stirred magnetically to dissolve the photoinitiator system and 6 (DEBTMSPOM-1,5,7,11-TOSU) when included. Formulations were prepared and stored away from ambient light and tested the same day as prepared.

[3] = Photopolymerization stress measurement (tensilometer)
Method: In this example, the photopolymerization stress of the monomers of the present invention was investigated. Stress generated during photopolymerization was measured (n=3) using an electromagnetic mechanical testing machine (Enduratec Model 3200, Bose Corp., Minnetonka, Minn.) adapted to be a tensilometer. See Feilzer et al., Dent. Mater. […] Briefly, two identical glass rods, 5 mm in diameter, were placed opposing one another and separated by 1 mm (C-factor=2.5). A displacement transducer (LVDT, Enduratec, 0.1 μm resolution, range ±1 mm) was mounted on one glass rod and was touching a plate attached to the opposing glass rod. The distance between the mounts on the opposing glass rods was about 9 mm (including the 1 mm separation between the rods). Samples placed between the glass rods were cured by irradiation (500 mW/cm^2), while under LVDT displacement control. Load-displacement data were collected at 200 Hz for 30 mins. […] From the load-displacement data, peak loads were obtained and normalized by the original area to obtain the polymerization stresses.

[4] = Oxaspirocyclic ring opening via 13C-NMR; conditions: 20 min visible light irradiation with PI system
Method: NMR Studies: NMR spectra were acquired using a Bruker Advance Ultrashield FT-NMR spectrometer. A reaction mixture consisting of 6 (DEBTMSPOM-1,5,7,11-TOSU) and the PI system was heated to 55-60° C. to liquefy and then allowed to cool to room temperature. A 300 mg sample was transferred to an 8 mm I.D.×8 mm H cylindrical glass mold and irradiated for 20 min (3 mm; 500 mW/cm^2) using a 3M XL 2500 lamp. A small amount was transferred to an NMR tube, taken up in CDCl3 and the ^13C-NMR spectrum was acquired and compared to the pre-irradiation spectrum. The residual irradiated material was stored in the dark for 24 hr, resampled, and the NMR spectrum acquired and compared to the pre- and post-irradiation spectra.

[5] = 4-hour Post Cure, 10 mol % TOSU in SIL-MIX
[6] = 4-hour Post Cure, 25 mol % TOSU in SIL-MIX
[7] = 24-hour Post Cure, 10 mol % TOSU in SIL-MIX
[8] = 24-hour Post Cure, 25 mol % TOSU in SIL-MIX

## CCC1(COCCC[Si](C)(C)C)COC2(OC1)OCC(CC)(COCCC[Si](C)(C)C)CO2 (centres unmarked) [Monomer 6, 3,9-diethyl-3,9-bis(3-trimethylsilylpropyloxymethyl)-1,5,7,11-tetraoxaspiro[5.5]undecane]
[1]; 4-h Post Cure, 10 mol % TOSU in SIL-MIX
  Flexural elastic modulus: 1.61 (0.17)^a GPa
[1]; 4-h Post Cure, 25 mol % TOSU in SIL-MIX
  Flexural elastic modulus: 1.33 (0.18)^a GPa
[1]; [5]
  Flexural strength: 58.77 (19.08)^a,b MPa
  Work of Fracture: 2.67 (1.25)^a kJ/m^2
[1]; [6]
  Flexural strength: 30.90 (11.36)^a MPa
  Work of Fracture: 0.73 (0.38)^a kJ/m^2
[1]; 10 mol % TOSU
  24-hour modulus values as % of those for SIL-MIX alone: 77%
  24-hour strength values as % of those for SIL-MIX alone: 84%
  24-hour work of fracture values as % of those for SIL-MIX alone: 100%
[1]; 10 mol % TOSU, listed as TOSU
  24-hour strength values as % of those for SIL-MIX alone: 85%
[1]; 24-h Post Cure, 10 mol % TOSU in SIL-MIX
  Flexural elastic modulus: 2.41 (0.24)^b GPa
[1]; 24-h Post Cure, 25 mol % TOSU in SIL-MIX
  Flexural elastic modulus: 1.87 (0.06)^a GPa
[1]; [7]
  Flexural strength: 76.90 (10.19)^a,b MPa
  Work of Fracture: 3.07 (0.81)^a,b kJ/m^2
[1]; [8]
  Flexural strength: 56.63 (11.11)^a MPa
  Work of Fracture: 1.80 (0.87)^a kJ/m^2
[1]; 25 mol % TOSU
  24-hour modulus values as % of those for SIL-MIX alone: 60%
  24-hour strength values as % of those for SIL-MIX alone: 60%
  24-hour work of fracture values as % of those for SIL-MIX alone: 66%
[2]; 3 wt % PI, 10 mol % in SIL-MIX
  ΔHexp: -124 J/g
[2]; 3 wt % PI, 25 mol % in SIL-MIX
  ΔHexp: -86 J/g
[2]; 3 wt % PI, calculated for inert diluent instead of TOSU at 10 mol %
  ΔHcalc: -174 J/g
[2]; 3 wt % PI, calculated for inert diluent instead of TOSU at 25 mol %
  ΔHcalc: -145 J/g
[2]; 6 wt % PI, 10 mol % in SIL-MIX
  ΔHexp: -127 J/g
[2]; 6 wt % PI, 25 mol % in SIL-MIX
  ΔHexp: -87 J/g
[2]; 6 wt % PI, calculated for inert diluent instead of TOSU at 10 mol %
  ΔHcalc: -166 J/g
[2]; 6 wt % PI, calculated for inert diluent instead of TOSU at 25 mol %
  ΔHcalc: -139 J/g
[2]; 10% TOSU mix in SIL-MIX
  experimental ΔH as % of the calculated ΔH: 71%
[2]; 25% TOSU mix in SIL-MIX
  experimental ΔH as % of the calculated ΔH: 59%
[3]; 10 mol % TOSU
  polymerization stress values less than SIL-MIX alone: 80%
[3]; 25 mol % TOSU
  polymerization stress values less than SIL-MIX alone: 96%
[3]; SIL-MIX/6 75/25 mol/mol
  Photopolymerization stress: 0.3(0.1) N/mm^2
[3]; SIL-MIX/6 90/10 mol/mol
  Photopolymerization stress: 2.1(0.2) N/mm^2
[4]; 0 hour dark cure
  changes in 13C-NMR spectrum (oxaspirocyclic ring opening): No significant changes
[4]; 24 hour dark cure
  changes in 13C-NMR spectrum (oxaspirocyclic ring opening): consistent with oxaspirocyclic ring opening to form oligomeric carbonate species
